Calls of active or inactive are those of the source.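 Rule for the calls: active = compounds giving half or more protection of infected cells from virus-caused growth loss, again on retest; inactive = the rest.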
Tested on: CEM cells HIV-1 protection, formazan growth assay
Experiment: NCI AIDS Antiviral Assay
Details: for IC50: measured here: growth of uninfected CEM cells
Method in brief: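 Five concentrations of each compound were applied to infected and uninfected human CEM cells. Protection from HIV-1 was judged from growth measured with a soluble formazan assay.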

SMILES	EC50 [µM]	IC50 [µM]	outcome
CN(C)c1cc(CNCCSC(c2ccccc2)(c2ccccc2)c2ccccc2)nc(CNCCSC(c2ccccc2)(c2ccccc2)c2ccccc2)c1	> 200	3.02	–
O=C1NC(=O)/C(=C/c2ccc(S(=O)(=O)N/N=C/c3ccc(Cl)cc3)cc2)N1	> 200	123	–
O=C(O)CC/C(=N\Nc1nsc2ccccc12)c1ccccc1	> 11.5	8.13	–
OCC1CC2C=CCC(C2)C1 (stereo not given)	–	–	inactive
CC1(C)c2ccccc2C(C)(C)C(C(=O)Nc2ccccc2)C1C(=O)O (stereo not given)	–	–	inactive
CCOC(=O)C1(C)CCCC1N (stereo not given)	> 200	> 200	–
O=C1CCCCC(=O)OC2(CCCCC2=O)CC1 (stereo not given)	> 200	> 200	–
CC(=O)C(N)=NCc1ccccc1	> 1410	1020	–
O=C(O/N=C1/CCCC/C1=C\c1ccccc1)c1ccc(Cl)c(Cl)c1	–	–	inactive
O=C(O)C(=O)CC(=O)c1ccc(Cl)cc1	> 200	> 200	–
COc1ccc2c(c1)OCC1(O)Cc3ccccc3OC21 (stereo not given)	> 200	107	–
CC(=O)NC(=O)CC(=O)c1ccccc1	> 631	> 631	–
O=C(NCCCCCCNC(=O)c1cc(-c2ccccc2)nc2ccccc12)c1cc(-c2ccccc2)nc2ccccc12	> 200	> 200	–
CCC=C(c1cc(Cl)c(OC)c(C(=O)OC)c1)c1cc(Cl)c(OC)c(C(=O)OC)c1	> 8.32	> 8.32	–
COc1ccc(C(c2c(O)c3ccccc3oc2=O)N2CCCC2)cc1 (stereo not given)	> 200	123	–
O=C1OC(OC2OC(=O)c3ccccc32)c2ccccc21 (stereo not given)	> 200	> 200	–
CCOC(=O)CC1(Cc2ccc(OCc3ccccc3)cc2)C(=O)OC(c2ccccc2)N1C(=O)c1ccccc1 (stereo not given)	> 200	> 200	–
c1ccc2c(c1)SC1Sc3ccccc3[S+]21 (stereo not given)	> 200	11.5	–
NNC(N)=Nc1cccc2ccccc12	> 200	> 200	–
NC(CCc1nc(-c2ccccc2)cs1)C(=O)O (stereo not given)	–	–	inactive
COc1cc(C2C(C(=O)Nc3ccc(Cl)c(Cl)c3)=C(C)NC(C)=C2C(=O)Nc2ccc(Cl)c(Cl)c2)ccc1O	> 22.4	12.6	–
[O]=[Sb][c]1ccc(C(=O)O)cc1	> 200	26.3	–

SMILES	EC50 [µM]	IC50 [µM]	outcome
Oc1cccc2cccnc12	> 1230	2.34	inactive
CN(NC(=O)/C(=C/c1ccc(O)cc1)NC(=O)c1ccccc1)c1ccnc2cc(Cl)ccc12	> 200	10.2	–
COc1ccc2nc3cc(Cl)ccc3c(Sc3ccccc3[N+](=O)[O-])c2c1	> 9.55	> 9.55	–
C=C(CN(C)C)C(=O)c1cc(C)ccc1C	> 200	11.2	–
CCOC(=O)/C=C1/Oc2ccccc2C1(C)O (stereo not given)	> 42.7	> 42.7	–
CCOC(=O)/C(C#N)=C/c1ccc(OC)cc1	> 155	> 155	–
CN(C(=O)C12C3(C(=O)O)C4C5(C(=O)O)C3C1(C(=O)O)C5C42C(=O)O)C(C)(C)C (stereo not given)	> 200	> 200	–
CCOC(=O)C1CC(C(=O)OCC)(c2ccccc2)CCC1=O (stereo not given)	> 58.9	47.9	–
CC1(C(=O)Nc2ccc3cc4ccccc4cc3c2)CC2(C)CC(C)(C1)C(O)NC2=O (stereo not given)	–	–	inactive
CCCCCCCCCCCCCCCC(=O)Nc1ccn(C2CCC(COP(=O)(O)OCC3OC(n4ccc(NC(=O)CCCCCCCCCCCCCCC)nc4=O)CC3OP(=O)(O)OCC3OC(n4cc(C)c(=O)[nH]c4=O)CC3N=[N+]=[N-])O2)c(=O)n1 (stereo not given)	0.0282	15.1	–
O=C(O)c1cc2ccccc2c(I)c1O	> 200	105	–
O=C1C2C(C(=O)N1c1ccccc1)C1([N+](=O)[O-])C=C3c4ccccc4N(C(=O)c4ccccc4)C32C2C(=O)N(c3ccccc3)C(=O)C21 (stereo not given)	–	–	inactive
Cc1cc(C)c(C)c(C(=O)OCC(C)(C)C)c1C	> 200	110	–
c1ccc2c(c1)SCCc1nncn1-2	> 437	> 437	–
CC1=C(Br)CC23C(C1)OC(Br)(C=CC2(C)O)C3(C)C (stereo not given) (tested in a mixture with another compound)	–	–	inactive
c1ccc(SSc2ccccn2)nc1	> 200	5.13	–
CCCN1CN(C(C(=O)N[C@@H]2C(=O)N3C(C(=O)O)=C(C)CSC23)c2ccc(O)cc2)CSC1=S (stereo not given in full)	> 347	195	–
Cc1nc2nn(C)cc2c(=O)n1/N=C/c1ccccc1	> 200	> 200	–
CC#N.CC#N.COC(=O)[C@@H]1CN(C(=O)c2ccccc2)C(=O)[N-]1.COC(=O)[C@@H]1CN(C(=O)c2ccccc2)C(=O)[N-]1.COC(=O)[C@@H]1CN(C(=O)c2ccccc2)C(=O)[N-]1.COC(=O)[C@@H]1CN(C(=O)c2ccccc2)C(=O)[N-]1.[Rh+2].[Rh+2]	10.7	87.1	–
Oc1ccc(C2O[C@H](c3ccc(O)cc3)C(c3cc(O)cc(O)c3)C2c2cc(O)cc3c2C(c2cc(O)cc4c2C(c2cc(O)cc(O)c2)[C@H](c2ccc(O)cc2)O4)[C@@H](c2ccc(O)cc2)O3)cc1 (stereo not given in full)	36.3	214	–
OC1CCOC1(O)c1ccccn1 (stereo not given)	> 200	> 200	–
